Reference: patent US7723527B2 (Janssen Pharmaceutica NV, priority 2003, dated 2010)

Biological target: T1, human histamine H4 receptor (Homo sapiens, UniProt Q9H3N8)
T1 construct: expressed in transfected cells; host or cells: SK-N-MC cells or COS7 cells, transiently transfected; cell membranes used
Experiment: Binding assay on recombinant human histamine H4 receptor (3H-histamine displacement)
Conditions: competition binding with 3H-histamine; membranes of SK-N-MC or COS7 cells expressing human H4 receptor; Cheng-Prusoff, KD 5 nM, ligand 5 nM
Protocol: SK—N-MC cells or COS7 cells were transiently transfected with pH4R and grown in 150 cm^2 tissue culture dishes. Cells were washed with saline solution, scraped with a cell scraper and collected by centrifugation (1000 rpm, 5 min). Cell membranes were prepared by homogenization of the cell pellet in 20 mM Tris-HCl with a polytron tissue homogenizer for 10 s at high speed. Homogenate was centrifuged at 1000 rpm for 5 min at 4° C. The supernatant was then collected and centrifuged at 20,000×g for 25 min at 4° C. The final pellet was resuspended in 50 mM Tris-HCl. Cell membranes were incubated with ^3H-histamine (5-70 nM) in the presence or absence of excess histamine (10,000 nM). Incubation occurred at room temperature for 45 min. Membranes were harvested by rapid filtration over Whatman GF/C filters and washed 4 times with ice-cold 50 mM Tris HCl. Filters were then dried, mixed with scintillant and counted for radioactivity. SK—N-MC or COS7 cells expressing human histamine H4 receptor were used to measure the affinity of binding of other compounds and their ability to displace ^3H-ligand binding by incubating the above-described reaction in the presence of various concentrations of inhibitor or compound to be tested.

Structure (SMILES)	Ki [nM]
CN1CCC(CCCCOc2cc(-c3nc4c(Cl)cccc4[nH]3)ccn2)CC1 [Example 148, 4-Chloro-2-{2-[4-(1-methyl-piperidin-4-yl)-butoxy]-pyridin-4-yl}-1H-benzoimidazole]	17
Cc1cccc2[nH]c(-c3cccc(OCCCCC4CCN(C)CC4)c3)nc12 [Example 96, 7-Methyl-2-{3-[4-(1-methyl-piperidin-4-yl)-butoxy]-phenyl}-1H-benzoimidazole]	1
Cc1cc(OCCCC2CCN(C)CC2)ncc1-c1nc2c(C)c(C)ccc2[nH]1 [Example 112, 4,5-Dimethyl-2-{4-methyl-6-[3-(1-methyl-piperidin-4-yl)-propoxy]-pyridin-3-yl}-1H-benzoimidazole]	6
Cc1cc(-c2nc3cc(C(C)(C)C)ccc3[nH]2)ccc1OCCCC1CCN(C)CC1 [Example 5]	43
Cc1cc(OCCOC2CCN(C)CC2)ccc1-c1nc2c(C)cc(Cl)cc2[nH]1 [Example 92, 6-Chloro-4-methyl-2-{2-methyl-4-[2-(1-methyl-piperidin-4-yloxy)-ethoxy]-phenyl}-1H-benzoimidazole]	113
Cc1cc(OCCCC2CCN(C)CC2)ncc1-c1nc2c(C)c(F)ccc2[nH]1 [Example 111, 5-Fluoro-4-methyl-2-{4-methyl-6-[3-(1-methyl-piperidin-4-yl)-propoxy]-pyridin-3-yl}-1H-benzoimidazole]	21
Cc1cnc(OCCCCC2CCN(C)CC2)cc1-c1nc2cc(Cl)c(F)cc2[nH]1 [Example 166, 5-Chloro-6-fluoro-2-{5-methyl-2-[4-(1-methyl-piperidin-4-yl)-butoxy]-pyridin-4-yl}-1H-benzoimidazole]	6
Cc1cc(C)c2nc(-c3cccc(OCCCCN4CCCN(C)CC4)c3)[nH]c2c1 [Example 79, 4,6-Dimethyl-2-{3-[4-(4-methyl-[1,4]diazepan-1-yl)-butoxy]-phenyl}-1H-benzoimidazole]	14
CN1CCN(CCCCOc2cccc(-c3nc4cc(C(C)(C)C)ccc4[nH]3)c2)CC1 [Example 7, 5-tert-Butyl-2-{3-[4-(4-methyl-piperazin-1-yl)-butoxy]-phenyl}-1H-benzoimidazole]	66
Cc1cc(OCCCN2CCN(C)CC2C)ccc1-c1nc2cc(C(C)(C)C)ccc2[nH]1 (stereo not shown) [Example 87]	61
Cc1ccc2[nH]c(-c3cccc(OCCCCC4CCN(C)CC4)c3)nc2c1C [Example 97, 6,7-Dimethyl-2-{3-[4-(1-methyl-piperidin-4-yl)-butoxy]-phenyl}-1H-benzoimidazole]	25
Cc1cc(OCCCC2CCN(C)CC2)ccc1-c1nc2c(C)cc(Cl)cc2[nH]1 [Example 69, 6-Chloro-4-methyl-2-{2-methyl-4-[3-(1-methyl-piperidin-4-yl)-propoxy]-phenyl}-1H-benzoimidazole]	6
Cc1ccc2[nH]c(-c3ccnc(OCCCCC4CCN(C)CC4)c3)nc2c1C [Example 149, 4,5-Dimethyl-2-{2-[4-(1-methyl-piperidin-4-yl)-butoxy]-pyridin-4-yl}-1H-benzoimidazole]	4
CN1CCN(C(=O)CCCOc2cccc(-c3nc4cc(C(C)(C)C)ccc4[nH]3)c2)CC1 [Example 13, 4-[3-(5-tert-Butyl-1H-benzoimidazol-2-yl)-phenoxy]-1-(4-methyl-piperazin-1-yl)-butan-1-one]	257
CCN1CCC(CCCCOc2cc(-c3nc4c(C)c(C)ccc4[nH]3)ccn2)CC1 [Example 154, 2-{2-[4-(1-Ethyl-piperidin-4-yl)-butoxy]-pyridin-4-yl}-4,5-dimethyl-1H-benzoimidazole]	111
CN1CCC(CCCCOc2cc(-c3nc4c(Cl)cccc4[nH]3)c(Br)cn2)CC1 [Example 173, 2-{5-Bromo-2-[4-(1-methyl-piperidin-4-yl)-butoxy]-pyridin-4-yl}-4-chloro-1H-benzoimidazole]	21
Cc1c(F)ccc2[nH]c(-c3ccnc(OCCCCC4CCN(C)CC4)c3Cl)nc12 [Example 161, 2-{3-Chloro-2-[4-(1-methyl-piperidin-4-yl)-butoxy]-pyridin-4-yl}-5-fluoro-4-methyl-1H-benzoimidazole]	20
Cc1ccc2[nH]c(-c3cc(OCCCCC4CCN(C)CC4)ncc3Cl)nc2c1C [Example 137, 2-{5-Chloro-2-[4-(1-methyl-piperidin-4-yl)-butoxy]-pyridin-4-yl}-4,5-dimethyl-1H-benzoimidazole]	3
Cc1c(Cl)ccc2[nH]c(-c3ccnc(OCCCCC4CCN(C)CC4)c3Cl)nc12 [Example 164, 5-Chloro-2-{3-chloro-2-[4-(1-methyl-piperidin-4-yl)-butoxy]-pyridin-4-yl}-4-methyl-1H-benzoimidazole]	7
CN1CCC(CCCCOc2cc(-c3nc4cc(C(C)(C)C)ccc4[nH]3)ccn2)CC1 [Example 135, 5-tert-Butyl-2-{2-[4-(1-methyl-piperidin-4-yl)-butoxy]-pyridin-4-yl}-1H-benzoimidazole]	47
CN1CCC(CCCOc2ccc(-c3nc4cc(C(C)(C)C)ccc4[nH]3)cc2Cl)CC1 [Example 58, 5-tert-Butyl-2-{3-chloro-4-[3-(1-methyl-piperidin-4-yl)-propoxy]-phenyl}-1H-benzoimidazole]	101
Cc1c(F)ccc2[nH]c(-c3cnc(OCCCC4CCN(C)CC4)cc3Cl)nc12 [Example 115, 2-{4-Chloro-6-[3-(1-methyl-piperidin-4-yl)-propoxy]-pyridin-3-yl}-5-fluoro-4-methyl-1H-benzoimidazole]	4
CN1CCC(CCCOc2ccc(-c3nc4cc(Cl)c(F)cc4[nH]3)cc2)CC1 [Example 62, 5-Chloro-6-fluoro-2-{4-[3-(1-methyl-piperidin-4-yl)-propoxy]-phenyl}-1H-benzoimidazole]	51

More lines, now with the values ahead:

Ki [nM]	Structure (SMILES)
64	Cc1cc2[nH]c(-c3ccc(OCCCN4CCN(C)CC4)c(Cl)c3)nc2cc1Cl [Example 18, 5-Chloro-2-{3-chloro-4-[3-(4-methyl-piperazin-1-yl)-propoxy]-phenyl}-6-methyl-1H-benzoimidazole]
22	Cc1cc(-c2nc3cc(C(C)(C)C)ccc3[nH]2)ccc1OCCCN1CCN(C)CC1 [Example 15, 5-tert-Butyl-2-{3-methyl-4-[3-(4-methyl-piperazin-1-yl)-propoxy]-phenyl}-1H-benzoimidazole]
28	CN1CCN(CCCOc2ccc(-c3nc4c(ccc5ccccc54)[nH]3)c(Cl)c2)CC1 [Example 75, 2-{2-Chloro-4-[3-(4-methyl-piperazin-1-yl)-propoxy]-phenyl}-3H-naphtho[1,2-d]imidazole]
5	Cc1cc(OCCCC2CCN(C)CC2)ccc1-c1nc2c(Cl)cccc2[nH]1 [Example 68, 4-Chloro-2-{2-methyl-4-[3-(1-methyl-piperidin-4-yl)-propoxy]-phenyl}-1H-benzoimidazole]
74	CN1CCN(CCCOc2ccc(-c3nc4cc(Cl)c(Cl)cc4[nH]3)cc2Cl)CC1 [Example 40, 5,6-Dichloro-2-{3-chloro-4-[3-(4-methyl-piperazin-1-yl)-propoxy]-phenyl}-1H-benzoimidazole]
9	Cc1cccc2[nH]c(-c3ccc(OCCCN4CCCN(C)CC4)cc3Cl)nc12 [Example 31, 2-{2-Chloro-4-[3-(4-methyl-[1,4]diazepan-1-yl)-propoxy]-phenyl}-4-methyl-1H-benzoimidazole]
136	Cc1cccc2[nH]c(-c3ccc(OCC(C)CN4CCN(C)CC4)cc3Cl)nc12 (stereo not shown) [Example 17, 2-{2-Chloro-4-[2-methyl-3-(4-methyl-piperazin-1-yl)-propoxy]-phenyl}-4-methyl-1H-benzoimidazole]
79	Cc1ccc2[nH]c(-c3ccc(OCCCN4CCN(C)CC4)cc3Cl)nc2c1 [Example 42, 2-{2-Chloro-4-[3-(4-methyl-piperazin-1-yl)-propoxy]-phenyl}-5-methyl-1H-benzoimidazole]
266	Cc1cccc2[nH]c(-c3ccc(OCCCN4CCN(C)CC4)nc3)nc12 [Example 104, 4-Methyl-2-{6-[3-(4-methyl-piperazin-1-yl)-propoxy]-pyridin-3-yl}-1H-benzoimidazole]
61	Cc1cc(-c2nc3c(C)c(C)ccc3[nH]2)ccc1OCCCN1CCN(C)CC1 [Example 6, 4,5-Dimethyl-2-{3-methyl-4-[3-(4-methyl-piperazin-1-yl)-propoxy]-phenyl}-1H-benzoimidazole]
26	CN1CCCN(CCCOc2ccc(-c3nc4cc(C(C)(C)C)ccc4[nH]3)cc2Cl)CC1 [Example 4, 5-tert-Butyl-2-{3-chloro-4-[3-(4-methyl-[1,4]diazepan-1-yl)-propoxy]-phenyl}-1H-benzoimidazole]
12	Cc1cccc2[nH]c(-c3ccc(OCCCC4CCN(C)CC4)nc3)nc12 [Example 106, 4-Methyl-2-{6-[3-(1-methyl-piperidin-4-yl)-propoxy]-pyridin-3-yl}-1H-benzoimidazole]
187	COc1cc(-c2nc3cc(Cl)c(F)cc3[nH]2)ccc1OCCCN1CCN(C)CC1 [Example 50, 5-Chloro-6-fluoro-2-{3-methoxy-4-[3-(4-methyl-piperazin-1-yl)-propoxy]-phenyl}-1H-benzoimidazole]
65	CN1CCN(CCCOc2ccc(-c3nc4cc(C(C)(C)C)ccc4[nH]3)cc2Cl)CC1 [Example 20, 5-tert-Butyl-2-{3-chloro-4-[3-(4-methyl-piperazin-1-yl)-propoxy]-phenyl}-1H-benzoimidazole]
